Assays:
Assay type in all cases: in vivo
[1] = tested on: Bemisia tabaci (cotton white fly); test: Example B10: Bemisia tabaci, sprayed cotton leaf discs; conditions: foliar, 144 h, application rate 200 ppm, adult white flies, 6 days after incubation
Procedure: Cotton leaf discs were placed on agar in 24-well microtiter plates and sprayed with aqueous test solutions prepared from 10,000 ppm DMSO stock solutions. After drying the leaf discs were infested with adult white flies. The samples were checked for mortality 6 days after incubation.

[2] = tested on: Spodoptera littoralis (Egyptian cotton leaf worm); test: Example B1: Spodoptera littoralis, sprayed cotton leaf discs; conditions: foliar, 72 h, application rate 200 ppm, L1 larvae, 3 days after infestation, read-out: control in at least one of the three categories (mortality, anti-feedancy or growth inhibition)
[3] = tested on: Diabrotica balteata (corn root worm); test: Example B4: Diabrotica balteata, sprayed maize sprouts; conditions: 96 h, application rate 200 ppm, L2 larvae, 4 days after infestation, read-out: effect in at least one of the two categories (mortality or growth inhibition)
Procedure: Maize sprouts, placed on an agar layer in 24-well microtiter plates were treated with aqueous test solutions prepared from 10,000 ppm DMSO stock solutions by spraying. After drying, the plates were infested with L2 larvae (6 to 10 per well). The samples were assessed for mortality and growth inhibition in comparison to untreated samples 4 days after infestation.

[4] = tested on: Plutella xylostella (diamond back moth); test: Example B3: Plutella xylostella, treated artificial diet; conditions: 120 h, application rate 200 ppm, L2 larvae, 5 days after infestation, read-out: effect in at least one of the two categories (mortality or growth inhibition)
Procedure: 24-well microtiter plates with artificial diet were treated with aqueous test solutions prepared from 10,000 ppm DMSO stock solutions by pipetting. After drying, the plates were infested with L2 larvae (10 to 15 per well). The samples were assessed for mortality and growth inhibition in comparison to untreated samples 5 days after infestation.

[5] = tested on: Tetranychus urticae (two-spotted spider mite); test: Example B8: Tetranychus urticae, sprayed bean leaf discs; conditions: foliar, 192 h, application rate 200 ppm, mixed population (mobile stages), 8 days after infestation
Text: Bean leaf discs on agar in 24-well microtiter plates were sprayed with aqueous test solutions prepared from 10,000 ppm DMSO stock solutions. After drying the leaf discs were infested with a mite population of mixed ages.

[6] = tested on: Spodoptera littoralis (Egyptian cotton leaf worm); test: Example B2: Spodoptera littoralis, systemic test via lettuce roots in agar; conditions: 144 h, application rate 12.5 ppm, Spodoptera eggs, 6 days after infestation, read-out: control in at least one of the three categories (mortality, anti-feedancy or growth inhibition)
Text: Test compounds were applied by pipette from 10,000 ppm DMSO stock solutions into 24-well plates and mixed with agar. Lettuce seeds were placed on the agar and the multi well plate was closed by another plate which contains also agar. After 7 days the roots have absorbed the compound and the lettuce has grown into the lid plate. The lettuce leafs were now cut off into the lid plate. Spodoptera eggs were pipetted through a plastic stencil on a humid gel blotting paper and the plate closed with it. The samples were assessed for mortality, anti-feedant effect and growth inhibition in comparison to untreated samples 6 days after infestation.
The following compounds gave an effect of at least 80% control in at least one of the three categories (mortality, anti-feedancy or growth inhibition) at an application rate of 12.5 ppm: P2, P3, P8, P9, P11 and P17, P19, P20, P22, P23, P25, P26, P28, P30, P31, P32, P33, P40, P42, P43, P44, P45, P46, P47, P48, P49, P50, P51, P52, P53, P54, P60 and P61.

[7] = tested on: Myzus persicae (green peach aphid); test: Example B5: Myzus persicae, sprayed sunflower leaf discs; conditions: foliar, 144 h, application rate 200 ppm, aphid population of mixed ages, 6 days after infestation
Procedure: Sunflower leaf discs were placed on agar in a 24-well microtiter plate and sprayed with aqueous test solutions prepared from 10,000 ppm DMSO stock solutions. After drying, the leaf discs were infested with an aphid population of mixed ages. The samples were assessed for mortality 6 days after infestation.

[8] = tested on: Euschistus heros (neotropical brown stink bug); test: Example B6: Euschistus heros, sprayed soybean leaf; conditions: 120 h, application rate 200 ppm, N-2 nymphs, 5 days after infestation
Text: Soybean leaf on agar in 24-well microtiter plates were sprayed with aqueous test solutions prepared from 10,000 ppm DMSO stock solutions. After drying the leaf were infested with N-2 nymphs.

[9] = tested on: Myzus persicae (green peach aphid); test: Example B7: Myzus persicae, systemic test with roots of pea seedlings in test solution; conditions: 144 h, test rate 24 ppm, aphid population of mixed ages, 6 days
Text: Roots of pea seedlings infested with an aphid population of mixed ages were placed directly in the aqueous test solutions prepared from 10,000 DMSO stock solutions.

CCS(=O)(=O)c1cc(-c2ncc(Cl)s2)cnc1C(=O)/N=c1\sc(C(F)(F)F)nn1C [Compound P57]
≥ 80%: mortality at 200 ppm [1] | percent control (mortality, anti-feedant effect or growth inhibition) at 200 ppm [2] | percent effect (mortality or growth inhibition) at 200 ppm [3] | percent effect (mortality or growth inhibition) at 200 ppm [4]

CCS(=O)(=O)c1cc(-c2ccc(C(F)(F)F)cc2)cnc1C(=O)/N=c1\sc(C(F)(F)C(F)(F)F)nn1C [Compound P8]
≥ 80%: mortality at 200 ppm [5] | percent control (mortality, anti-feedant effect or growth inhibition) at 12.5 ppm [6] | percent control (mortality, anti-feedant effect or growth inhibition) at 200 ppm [2] | mortality at 200 ppm [7] | percent effect (mortality or growth inhibition) at 200 ppm [3] | mortality at 200 ppm [8] | percent effect (mortality or growth inhibition) at 200 ppm [4]

CCS(=O)(=O)c1cc(C2CC2)cnc1C(=O)/N=c1\sc(C(F)(F)F)nn1C [Compound P63]
≥ 80%: percent control (mortality, anti-feedant effect or growth inhibition) at 200 ppm [2] | mortality at 200 ppm [7] | mortality at 24 ppm [9] | percent effect (mortality or growth inhibition) at 200 ppm [3] | mortality at 200 ppm [8] | percent effect (mortality or growth inhibition) at 200 ppm [4]

CCS(=O)(=O)c1cc(-c2cncs2)cnc1C(=O)/N=c1\sc(C(F)(F)F)nn1C [Compound P39]
≥ 80%: mortality at 200 ppm [1] | percent control (mortality, anti-feedant effect or growth inhibition) at 200 ppm [2] | percent effect (mortality or growth inhibition) at 200 ppm [3]

CCS(=O)(=O)c1cc(-c2cccc(OC(F)(F)F)c2)cnc1C(=O)/N=c1\sc(C(F)(F)F)nn1C [Compound P31]
≥ 80%: mortality at 200 ppm [5] | percent control (mortality, anti-feedant effect or growth inhibition) at 12.5 ppm [6] | percent control (mortality, anti-feedant effect or growth inhibition) at 200 ppm [2] | percent effect (mortality or growth inhibition) at 200 ppm [3] | percent effect (mortality or growth inhibition) at 200 ppm [4]

CCS(=O)(=O)c1cc(-c2ccc(Cl)c(Cl)n2)cnc1C(=O)/N=c1\sc(C(F)(F)F)nn1C [Compound P45]
≥ 80%: mortality at 200 ppm [5] | percent control (mortality, anti-feedant effect or growth inhibition) at 12.5 ppm [6] | percent control (mortality, anti-feedant effect or growth inhibition) at 200 ppm [2] | mortality at 200 ppm [7] | percent effect (mortality or growth inhibition) at 200 ppm [3] | mortality at 200 ppm [8] | percent effect (mortality or growth inhibition) at 200 ppm [4]

CCS(=O)(=O)c1cc(C2(C#N)CC2)cnc1C(=O)/N=c1\sc(C(F)(F)C(F)(F)F)nn1C [Compound P20, (N)-5-(1-cyanocyclopropyl)-3-ethylsulfonyl-N-[3-methyl-5-(1,1,2,2,2-pentafluoroethyl)-1,3,4-thiadiazol-2-ylidene]pyridine-2-carboxamide]
≥ 80%: mortality at 200 ppm [1] | percent control (mortality, anti-feedant effect or growth inhibition) at 12.5 ppm [6] | percent control (mortality, anti-feedant effect or growth inhibition) at 200 ppm [2] | mortality at 200 ppm [7] | percent effect (mortality or growth inhibition) at 200 ppm [3] | mortality at 200 ppm [8] | percent effect (mortality or growth inhibition) at 200 ppm [4]

CCS(=O)(=O)c1cc(-c2ncccn2)cnc1C(=O)/N=c1\sc(C(F)(F)F)nn1C [Compound P42]
≥ 80%: percent control (mortality, anti-feedant effect or growth inhibition) at 12.5 ppm [6] | percent control (mortality, anti-feedant effect or growth inhibition) at 200 ppm [2] | mortality at 200 ppm [7] | mortality at 24 ppm [9] | percent effect (mortality or growth inhibition) at 200 ppm [3] | mortality at 200 ppm [8] | percent effect (mortality or growth inhibition) at 200 ppm [4]

CCS(=O)(=O)c1cc(-c2ncccn2)cnc1C(=O)/N=c1\ccc(SC(F)(F)F)cn1C [Compound P17, (N)-3-ethylsulfonyl-N-[1-methyl-5-(trifluoromethylsulfanyl)-2-pyridylidene]-5-pyrimidin-2-yl-pyridine-2-carboxamide]
≥ 80%: percent control (mortality, anti-feedant effect or growth inhibition) at 12.5 ppm [6] | percent control (mortality, anti-feedant effect or growth inhibition) at 200 ppm [2] | mortality at 200 ppm [7] | mortality at 24 ppm [9] | percent effect (mortality or growth inhibition) at 200 ppm [3] | mortality at 200 ppm [8] | percent effect (mortality or growth inhibition) at 200 ppm [4]

Reference: US10494366B2, “Pesticidally active amide heterocyclic derivatives with sulphur containing substituents” (Syngenta Participations AG, priority 2014, dated 2019)
